Experiments:
[1] = system: cad-11 mRNA in endometrial stromal cells; test: Northern blot of cad-11 mRNA in cultured endometrial stromal cells treated with gonadal steroids; type: cell-based, human; settings: P4 1 mM, E2 30 nM
Protocol: (§1) Endometrial tissue biopsies (n=6) were obtained from women of reproductive age during the mid-secretory phase of the menstrual cycle. All patients had normal menstrual cycles and had not received hormones for at least three months prior to the collection of tissue. The stage of the menstrual cycle was determined by the last menstrual period and confirmed by histological evaluation.
The endometrial stromal cells were separated from the glandular epithelium by enzymatic digestion and mechanical dissociation. […] The purity of the cell cultures was determined by immunocytochemical staining for vimentin, cytokeratin, muscle actin, and […]. […]
The Northern blots were hybridized with radiolabelled cDNA probes specific for human cad-11 according to the methods of MacCalman et al. (1992) Developmental Dynamics 195:127-132. […] The absorbance values obtained for cad-11 mRNA transcripts were normalized relative to the 18S rRNA absorbance value.
(§2) The results are presented as the mean relative absorbance (+SE) for three independent experiments. Statistical differences between time points and treatments were assessed by the analysis of variance (ANOVA). […] Significant differences between the means were determined using the least significant test.

[2] = system: cad-11 protein in endometrial stromal cells; test: Western blot of cad-11 protein in cultured endometrial stromal cells treated with gonadal steroids; type: cell-based, human
Protocol: as §1
The endometrial stromal cells were separated from the glandular epithelium by enzymatic digestion and mechanical dissociation. The endometrial biopsy specimens were minced and subjected to 0.1% colagenase (type 1A. Sigma Chemical Co., St. Louis. MO) and 0.1% hyaluronidase (type I-S, Sigma Chemical Co.) digestion in a shaking water bath at 37° C. for 1 hour. The cell digest was then passed through a nylon sieve (38 m). The isolated glands were retained on the sieve and the eluate containing the stromal cells collected in a 50 ml tube. […] The purity of the cell cultures was determined by immunocytochemical staining for vimentin, cytokeratin, muscle actin, and […]. […]
as §2

[3] = system: cad-11; test: Cad-11 antisense/sense oligonucleotide studies, second oligonucleotide pair; type: cell-based, human; settings: no individual experiments specified
Protocol: Antisense oligonucleotide sequences (18 mers, 50% AT/GC) were selected from the full-length cad-11 cDNA sequence using the MacVector™ program. DNA sequences located near the 5′ end of the cad-11 cDNA were selected and compared to the human sequence databases of GenBank and EMBL bank. […] Sense oligonucleotides, OB-3 and OB-4, were prepared as controls. Phosphothiorate labelled oligonucleotides were prepared at the Biotechnology Lab. of The University of British Columbia. The same results were obtained using OB-1 and OB-3, as with OB-2 and OB-4.

[4] = system: villous cytotrophoblasts; test: Reversibility of oligonucleotide effects on villous cytotrophoblasts; type: cell-based, human; settings: 48 hours with oligonucleotide, washed, further 24 hours
Protocol: To determine whether the effects of OB-1 on villous cytotrophoblasts are reversible, cells were cultured in the presence of OB-1 or OB-3 for 48 hours. The cells were washed thoroughly with PBS. The culture medium was then replaced and the cells cultured for a further 24 hours. […] The majority of cells (90%) detached from the culture and dish. Cad-11 was not detected in the remaining cells.

[5] = system: Villous cytotrophoblasts isolated from the human term placenta, cultured 72 hours
[6] = system: human decidual cells; test: Effect on primary cultures of human decidual cells; settings: 0.5-5 M for 24 hours
[7] = system: Cos-1 cells transfected with the steroid acute regulatory protein; test: Non-specific effects on cell number and steroidogenic capacity in Cos-1 cells; type: cell-based; set-up: cell number (Coulter cell counter): dose or concentration left out as unconfirmed
Protocol: Non-specific effects of the antisense oligonucleotides on cell viability and the steroidogenic capacity of cells was determined using Cos-1 cells transfected with the steroid acute regulatory protein (from Dr. J. F. Strauss, III. University of Pennsylvania, Philadelphia, Pa.). […] The COS-1 cells were cultured in the presence or absence of varying concentrations of OB-1 OR OB-3 (0.5-5 M) for 48 hours. The cell number present in each culture was determined using a Coulter™ cell counter and P4 concentrations present in the culture medium using a Progesterone RIA™ kit. As determined by these parameters.

[8] = system: cytotrophoblasts isolated from term placenta; test: Morphology of cytotrophoblasts by light microscopy and indirect immunofluorescence; type: cell-based, human; settings: indirect immunofluorescence for E-cadherin
Excerpt: The effect of OB-1 and OB-3 on the morphology of the cytotrophoblast was examined by light microscopy and indirect immunofluoresence.

[9] = system: cad-6 mRNA in human granulosa cells; test: Specificity of antisense in granulosa cells, Northern blot, cad-6 probe; type: cell-based; settings: 0.5-5 M, 24 hours
Protocol: (§3) In order to determine the specificity of OB-1, the effect of OB-1 was determined in human granulosa cells. Human granulosa cells express three cadherin subtypes (cad-11, cad-6 and N-cad) as they undergo spontaneous luteinization in culture. Granulosa cells which had been cultured for 36 hours were treated with OB-1 or OB-3 (0.5-5 M). The cultures were maintained for a further 24 hours, after which the cells were harvested for Northern analysis. Northern blots were probed with cad-11, cad-6, or N-cadherin (neural cadherin) cDNA probes as previously described. OB-1 caused a reduction in the levels of the cad-11 RNA transcript in a dose-dependent manner but had no effect on cad-6 or N-cadherin mRNA levels. In contrast.

[10] = system: N-cadherin mRNA in human granulosa cells; test: Specificity of antisense in granulosa cells, Northern blot, N-cadherin probe; type: cell-based; settings: 0.5-5 M, 24 hours
Protocol: as §3

[11] = system: PC3 cells treated with TGF-1; test: Effect of oligonucleotides on PC3 cells treated with TGF-1; settings: 0.5-5 M for 24 hours
[12] = system: cad-11 RNA transcript in human granulosa cells; test: Specificity of antisense in granulosa cells, Northern blot, cad-11 probe; type: cell-based; set-up: dose or concentration left out as unconfirmed; settings: 24 hours, dose-dependent manner for OB-1
Protocol: as §3

CC(=O)[C@H]1CC[C@H]2[C@@H]3CCC4=CC(=O)CC[C@]4(C)[C@H]3CC[C@]12C [P4, progesterone]
time in culture at which maximum cad-11 mRNA levels were observed [1]: 12 days | stromal cad-11 mRNA levels ([1]; alone or together, increase seen after 2 days of culture, studied 0-12 days): significant increase | time in culture at which maximum cad-11 expression levels were detected [2]: 12 days | cad-11 protein expression ([2]; P4, E2 30 nM, alone or together, increase seen at 2 days of culture): increase

OB-2: cad-11 antisense oligonucleotide, 18 mer: CAC GAA GAA CTG GTT CCA (SEQ ID NO:2) (antisense CACGAAGAACTGGTTCCA; listed as DNA, chemistry not given here; listed as Homo sapiens)
results compared with the pair OB-1 (antisense) and OB-3 (sense) [3]: same results

OB-3: sense oligonucleotide prepared as control: ATG ACA AAT GTT CGG CGG (SEQ ID NO:3) (sense ATGACAAATGTTCGGCGG; chemistry not given here) [reference compound]
structures observed after wash-out [4]: large syncytial structures | viability of syncytial structures (trypan blue) [5]: viable | structures observed (phase contrast microscopy) ([5]; oligonucleotide added after 72 hours of culture, OB-1 for 24 hours): Large syncytial structures | cell viability and number [6]: did not have a significant effect | steroidogenic capacity (P4 concentrations in culture medium, RIA) ([7]; 0.5-5 M for 48 hours): did not have a significant effect | cell number (Coulter cell counter) ([7]; for 48 hours): did not have a significant effect | composition of cellular structures formed (fusion) [8]: multinucleated syncytial structures | cad-6 mRNA levels [9]: did not effect | N-cadherin mRNA levels [10]: did not effect | cell viability and number [11]: did not have a significant effect | levels of the cad-11 RNA transcript [12]: did not effect

OB-4: sense oligonucleotide prepared as control: ACC TTG GTC AAG AAG CAC (SEQ ID NO:4) (sense ACCTTGGTCAAGAAGCAC; listed as DNA, chemistry not given here) [reference compound]
results compared with the pair OB-1 (antisense) and OB-3 (sense) [3]: same results

Source: patent publication US20050180982A1, “Cadherin-11 expression, an assay and treatment for cellular invasiveness” (THE UNIVERSITY OF BRITISH COLUMBIA, priority 1998, published 2005)
